According to US6914045B2, “Glycopeptide antibiotics” (Wyeth Holdings Corporation, priority 2001, dated 2005):
Values after ≈ are worked out from the molar mass of the structure shown.

Assays:
Assay in all cases: in vitro antibacterial evaluation, MIC by broth dilution
Type in all cases: cell-based
Staphylococcus sp. = details: broth dilution, 18 hours at 35° C.
Summary of the method: (§1)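 Following National Committee for Clinical Laboratory Standards recommendations (M7-A2), susceptibility was measured by dilution in Muller-Hinton II […]. Bacteria were seeded at 5×10^5 CFU/mL against compound concentrations from 64 down to 0.06 μg/mL.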

Streptococcus sp. = details: broth dilution, 18 hours at 35° C.
Summary of the method: as §1

Enterococcus sp. = details: broth dilution, 18 hours at 35° C.
Summary of the method: as §1

Escherichia coli = details: 18 hours at 35° C.
Summary of the method: as §1

MIC Staphylococcus aureus (ATCC 29213) (Staphylococcus sp.): 2 µg/mL (≈ 1.39 µM)
MIC Staphylococcus aureus (GC 1131) (Staphylococcus sp.): 4 µg/mL (≈ 2.77 µM)
MIC Staphylococcus aureus (GC 3051) (Staphylococcus sp.): 2 µg/mL (≈ 1.39 µM)
MIC Staphylococcus aureus (GC 3053) (Staphylococcus sp.): 2 µg/mL (≈ 1.39 µM)
MIC Staphylococcus aureus (GC 4541) (Staphylococcus sp.): 4 µg/mL (≈ 2.77 µM)
MIC Staphylococcus aureus (GC 4542) (Staphylococcus sp.): 2 µg/mL (≈ 1.39 µM)
MIC Staphylococcus aureus (GC 4544) (Staphylococcus sp.): 4 µg/mL (≈ 2.77 µM)
MIC Staphylococcus aureus (GC 4545) (Staphylococcus sp.): 2 µg/mL (≈ 1.39 µM)
MIC Staphylococcus aureus (GC 1131) (Staphylococcus sp.; inoculum 5×10^5 CFU/mL, strain GC 1131): 4 µg/mL (≈ 2.77 µM)
MIC Staphylococcus aureus (ATCC 29213) (Staphylococcus sp.; strain ATCC 29213): 2 µg/mL (≈ 1.39 µM)
MIC Staphylococcus aureus (GC 3051) (Staphylococcus sp.; strain GC 3051): 2 µg/mL (≈ 1.39 µM)
MIC Staphylococcus aureus (GC 3053) (Staphylococcus sp.; strain GC 3053): 2 µg/mL (≈ 1.39 µM)
MIC Staphylococcus aureus (GC 4541) (Staphylococcus sp.; strain GC 4541): 4 µg/mL (≈ 2.77 µM)
MIC Staphylococcus aureus (GC 4542) (Staphylococcus sp.; strain GC 4542): 2 µg/mL (≈ 1.39 µM)
MIC Staphylococcus aureus-SMITH (GC 4543) (Staphylococcus sp.; strain GC 4543): 2 µg/mL (≈ 1.39 µM)
MIC Staphylococcus aureus (GC 4544) (Staphylococcus sp.; strain GC 4544): 4 µg/mL (≈ 2.77 µM)
MIC Staphylococcus aureus (GC 4545) (Staphylococcus sp.; strain GC 4545): 2 µg/mL (≈ 1.39 µM)
MIC Coagulase Negative Staphylococcus (GC 4547) (Staphylococcus sp.; strain GC 4547): 4 µg/mL (≈ 2.77 µM)
MIC Coagulase Negative Staphylococcus (GC 4548) (Staphylococcus sp.; strain GC 4548): 2 µg/mL (≈ 1.39 µM)
MIC Coagulase Negative Staphylococcus (GC 4549) (Staphylococcus sp.; strain GC 4549): 1 µg/mL (≈ 0.694 µM)
MIC Coagulase Negative Staphylococcus (GC 4551) (Staphylococcus sp.; strain GC 4551): 2 µg/mL (≈ 1.39 µM)
MIC Staphylococcus aureus-SMITH (GC 4543) (Staphylococcus sp.; strain SMITH GC 4543): 2 µg/mL (≈ 1.39 µM)
MIC Streptococcus agalactiae (GC 4564) (Streptococcus sp.; Streptococcus agalactiae (GC 4564)): <0.12 µg/mL
MIC Streptococcus pneumoniae (ATCC 6301) (Streptococcus sp.; Streptococcus pneumoniae (ATCC 6301)): <0.12 µg/mL
MIC Streptococcus pneumoniae (GC 1894) (Streptococcus sp.; Streptococcus pneumoniae (GC 1894)): <0.12 µg/mL
MIC Streptococcus pneumoniae (GC 4565) (Streptococcus sp.; Streptococcus pneumoniae (GC 4565)): <0.12 µg/mL
MIC Streptococcus pyogenes (GC 4563) (Streptococcus sp.; Streptococcus pyogenes (GC 4563)): 0.25 µg/mL (≈ 0.173 µM)
MIC Streptococcus pneumoniae (ATCC 6301) (Streptococcus sp.; strain ATCC 6301): <0.12 µg/mL
MIC Streptococcus pneumoniae (GC 1894) (Streptococcus sp.; strain GC 1894): <0.12 µg/mL
MIC Streptococcus pyogenes (GC 4563) (Streptococcus sp.; strain GC 4563): 0.25 µg/mL (≈ 0.173 µM)
MIC Streptococcus agalactiae (GC 4564) (Streptococcus sp.; strain GC 4564): <0.12 µg/mL
MIC Streptococcus pneumoniae (GC 4565) (Streptococcus sp.; strain GC 4565): <0.12 µg/mL
MIC Enterococcus avium (GC 4558) (Enterococcus sp.; Enterococcus avium (GC 4558)): 2 µg/mL (≈ 1.39 µM)
MIC Enterococcus faecalis (ATCC 29212) (Enterococcus sp.; Enterococcus faecalis (ATCC 29212)): 2 µg/mL (≈ 1.39 µM)
MIC Enterococcus faecalis (GC 2242) (Enterococcus sp.; Enterococcus faecalis (GC 2242)): 4 µg/mL (≈ 2.77 µM)
MIC Enterococcus faecalis (GC 2691) (Enterococcus sp.; Enterococcus faecalis (GC 2691)): 4 µg/mL (≈ 2.77 µM)
MIC Enterococcus faecalis (GC 3059) (Enterococcus sp.; Enterococcus faecalis (GC 3059)): 2 µg/mL (≈ 1.39 µM)
MIC Enterococcus faecalis (GC 4552) (Enterococcus sp.; Enterococcus faecalis (GC 4552)): 4 µg/mL (≈ 2.77 µM)
MIC Enterococcus faecalis (GC 4553) (Enterococcus sp.; Enterococcus faecalis (GC 4553)): 4 µg/mL (≈ 2.77 µM)
MIC Enterococcus faecalis (GC 4554) (Enterococcus sp.; Enterococcus faecalis (GC 4554)): 4 µg/mL (≈ 2.77 µM)
MIC Enterococcus faecalis (GC 6189) (Enterococcus sp.; Enterococcus faecalis (GC 6189)): 2 µg/mL (≈ 1.39 µM)
MIC Enterococcus faecium (GC 2243) (Enterococcus sp.; Enterococcus faecium (GC 2243)): 4 µg/mL (≈ 2.77 µM)
MIC Enterococcus faecium (GC 4556) (Enterococcus sp.; Enterococcus faecium (GC 4556)): 4 µg/mL (≈ 2.77 µM)
MIC Enterococcus faecium (GC 4557) (Enterococcus sp.; Enterococcus faecium (GC 4557)): 4 µg/mL (≈ 2.77 µM)
MIC Enterococcus faecalis (ATCC 29212) (Enterococcus sp.; strain ATCC 29212): 2 µg/mL (≈ 1.39 µM)
MIC Enterococcus faecalis (GC 2242) (Enterococcus sp.; strain GC 2242): 4 µg/mL (≈ 2.77 µM)
MIC Enterococcus faecium (GC 2243) (Enterococcus sp.; strain GC 2243): 4 µg/mL (≈ 2.77 µM)
MIC Enterococcus faecalis (GC 2691) (Enterococcus sp.; strain GC 2691): 4 µg/mL (≈ 2.77 µM)
MIC Enterococcus faecalis (GC 3059) (Enterococcus sp.; strain GC 3059): 2 µg/mL (≈ 1.39 µM)
MIC Enterococcus faecalis (GC 4552) (Enterococcus sp.; strain GC 4552): 4 µg/mL (≈ 2.77 µM)
MIC Enterococcus faecalis (GC 4553) (Enterococcus sp.; strain GC 4553): 4 µg/mL (≈ 2.77 µM)
MIC Enterococcus faecalis (GC 4554) (Enterococcus sp.; strain GC 4554): 4 µg/mL (≈ 2.77 µM)
MIC Enterococcus faecium (GC 4556) (Enterococcus sp.; strain GC 4556): 4 µg/mL (≈ 2.77 µM)
MIC Enterococcus faecium (GC 4557) (Enterococcus sp.; strain GC 4557): 4 µg/mL (≈ 2.77 µM)
MIC Enterococcus avium (GC 4558) (Enterococcus sp.; strain GC 4558): 2 µg/mL (≈ 1.39 µM)
MIC Enterococcus faecalis (GC 6189) (Enterococcus sp.; strain GC 6189): 2 µg/mL (≈ 1.39 µM)
MIC Escherichia coli (ATCC 25922) (Escherichia coli; strain ATCC 25922): 64 µg/mL (≈ 44.4 µM)
MIC Escherichia coli (GC 4559) (Escherichia coli; strain GC 4559): 64 µg/mL (≈ 44.4 µM)
MIC Escherichia coli (GC 4560) (Escherichia coli; strain GC 4560): 4 µg/mL (≈ 2.77 µM)
Compound: CC(c1ccccc1)C1NC(=O)CNC(=O)C(CO)NC(=O)C(C(O)C2CNC(=N)N2C2OC(CO)C(O)C(O)C2O)NC(=O)C(C(O)C2CNC(=N)N2)NC(=O)C(Cc2ccc(OC3OC(CO)C(OC4OC5COC(C67CC8CC(CC(C8)C6)C7)OC5C(O)C4O)C(O)C3O)cc2)NC1=O (stereo not drawn) [Example 127]
MIC Staphylococcus haemolyticus (GC 4546) (Staphylococcus sp.; strain GC 4546): 2 µg/mL (≈ 1.39 µM)
